Counter-ions that a name gives are not always drawn.
System: patient's personalized Drosophila model 006.1
Test: Trametinib combination drug screen (Table 4B, experimental pupae numbers)
Assay type: in vivo
Procedure: After food was solidified, a mixture of experimental and control embryos (at a 1:2 ratio based on expected Mendelian ratios) were aliquoted into each drug/food tube (15 μl/tube). […] Embryos for drug screening were generated from the following cross in cages: w/Y; UAS-006.1; UAS ago^RNAi UAS-apc^RNAi/Stub-gal80-T Xw UAS-dicer2; +; byn-gal4 UAS-GFP tub-gal80^ts/TM6, Hu, Tb. Embryos were obtained from each cage for 4-5 consecutive days by providing daily a fresh apple juice plate with yeast paste. Egg lays were performed at 22° C. to minimize transgene expression during embryogenesis to prevent embryonic defects or lethality that could not potentially be rescued by drug feeding. After embryos were aliquoted, drug tubes were transferred to 25° C. to induce transgene expression. After 2 weeks, the number of surviving experimental pupae (EP) were counted in each tube.
DMSO and Trametinib alone served as controls. […] Statistical analysis was performed as described above.

[1] = drug screened in combination with trametinib
[2] = drug screened in combination with trametinib, mean of 8 replicates

SMILES	EP (raw experimental pupae numbers), replicate 1 [1]	EP (raw experimental pupae numbers), replicate 2 [1]	EP (raw experimental pupae numbers), replicate 3 [1]	EP (raw experimental pupae numbers), replicate 4 [1]	EP (raw experimental pupae numbers), replicate 5 [1]	EP (raw experimental pupae numbers), replicate 6 [1]	EP (raw experimental pupae numbers), replicate 7 [1]	EP (raw experimental pupae numbers), replicate 8 [1]	EP mean [2]	EP mean (in vivo)
O=c1[nH]c2ccccc2n1CCN1CCN(c2cccc(C(F)(F)F)c2)CC1 [flibanserin]	0	0	3	0	0	0	1	0	0.5	–
CNCCC(Oc1ccc(C(F)(F)F)cc1)c1ccccc1 (centres unmarked) [fluoxetine]	2	2	0	0	7	1	0	1	–	1.625
CC(C)n1c(/C=C/C(O)CC(O)CC(=O)O)c(-c2ccc(F)cc2)c2ccccc21 (centres unmarked) [fluvastatin]	0	0	0	0	0	0	0	2	0.25	–
Cc1ccc(C)c(OCCCC(C)(C)C(=O)O)c1 [gemfibrozil]	0	1	0	0	3	0	0	0	0.5	–
O=C(CCCN1CCC(O)(c2ccc(Cl)cc2)CC1)c1ccc(F)cc1 [haloperidol]	0	0	2	2	2	1	1	1	1.125	–
CC1Cc2ccccc2N1NC(=O)c1ccc(Cl)c(S(N)(=O)=O)c1 (centres unmarked) [indapamide]	0	0	1	0	2	2	0	4	1.125	–
COc1ccc2c(c1)c(CC(=O)O)c(C)n2C(=O)c1ccc(Cl)cc1 [indomethacin]	0	0	0	0	1	0	0	0	0.125	–
COc1cc2c(cc1OC)CC(=O)N(CCCN(C)C[C@H]1Cc3cc(OC)c(OC)cc31)CC2 [ivabradine HCl]	0	0	0	0	2	1	0	0	0.375	–
CC(C)(C)c1cc(C(C)(C)C)c(NC(=O)c2c[nH]c3ccccc3c2=O)cc1O [ivacaftor]	0	0	7	0	3	3	1	2	2	–
CC(C)C[C@H](NC(=O)CNC(=O)c1cc(Cl)ccc1Cl)B(O)O [ixazomib]	1	1	1	0	1	2	0	0	0.75	–
O=C(O)CSc1nnc(Br)n1-c1ccc(C2CC2)c2ccccc12 [lesinurad sodium]	0	0	1	0	1	2	1	0	0.625	–
Cc1ccc(NC(=O)C2(c3ccc4c(c3)OC(F)(F)O4)CC2)nc1-c1cccc(C(=O)O)c1 [lumacaftor]	0	4	4	1	2	1	1	4	2.125	–
CC(=O)O[C@]1(C(C)=O)CC[C@H]2[C@@H]3C=C(C)C4=CC(=O)CC[C@]4(C)[C@H]3CC[C@@]21C [megestrol acetate]	0	1	1	0	1	2	1	2	–	1
Cc1cnc(NC(=O)C2=C(O)c3ccccc3S(=O)(=O)N2C)s1 [meloxicam]	0	0	0	3	1	1	0	1	–	–
CN(C)C(=N)N=C(N)N [metformin HCl]	0	0	0	1	1	0	2	2	–	0.75
CN1Cc2c(N)cccc2C(c2ccccc2)C1 (centres unmarked) [nomifensine maleate]	0	0	0	0	1	4	0	1	0.75	–
C=CC(=O)Nc1cc(Nc2nccc(-c3cn(C)c4ccccc34)n2)c(OC)cc1N(C)CCN(C)C [osimertinib]	0	0	0	0	0	0	3	1	0.5	–
Fc1ccc([C@@H]2CCNC[C@H]2COc2ccc3c(c2)OCO3)cc1 [paroxetine HCl]	0	0	0	0	1	2	0	1	0.5	–
CC(C)(C)N.CCC[C@H](N[C@@H](C)C(=O)N1[C@H](C(=O)O)C[C@@H]2CCCC[C@@H]21)C(=O)OCC [perindropil erbumine]	0	0	3	3	5	1	2	2	–	2
CC(C(=O)O)c1ccc2c(c1)Cc1cccnc1O2 (centres unmarked) [pranaprofen]	0	1	1	1	1	3	1	3	1.375	–
